Measurements from patent US9434714B2, “Pyrimidine imidazole amines as modulators of kinase activity” (Merck Patent GmbH, priority 2014, dated 2016).

Experiments:
P70S6K (T412E mutant) = molecular target: T1, P70S6K (T412E mutant) (Homo sapiens, UniProt P23443, T412E); test: P70S6K enzyme assay; assay type: biochemical; settings: 24 μM ATP, 90 min at 25° C., mobility shift (Caliper)
T1 construct: purchased Millipore
Method: P70S6K inhibitor compounds were diluted and plated in 96 well plates. A reaction mixture including the following components was then added to the compound plate to initiate the enzyme reaction; P70S6K (3 nM, T412E mutant, Millipore) was mixed with 24 μM ATP in an assay buffer containing 100 mM Hepes (pH 7.5), 5 mM MgCl2, 1 mM DTT, 0.015% Brij and 1 μM of the substrate peptide FITC-AHA-AKRRRLSSLRA-OH (derived from the S6 ribosomal protein sequence, FITC=fluorescein isothiocyanate, AHA=6-aminohexanoic acid). The reaction was incubated for 90 min at 25° C., before the addition of 10 mM EDTA to stop the reaction. The proportion of substrate and product (phosphorylated) peptide was analysed on a Caliper Life Sciences Lab Chip 3000, using a pressure of −1.4 psi, and upstream and downstream voltages of −3000 and −700 respectively. Product peaks were resolved before substrate peaks on the resulting chromatograms.

His-AKT (Full Length) = molecular target: T2, His-AKT (Full Length) (Homo sapiens, UniProt P31749); test: AKT enzyme assay; assay type: biochemical; settings: 160 uM ATP, 90 min at 25 C, off-chip mobility shift (Caliper)
T2 construct: His-AKT (Full Length); His; purchased Invitrogen P2999
T2 sequence (P31749 whole entry): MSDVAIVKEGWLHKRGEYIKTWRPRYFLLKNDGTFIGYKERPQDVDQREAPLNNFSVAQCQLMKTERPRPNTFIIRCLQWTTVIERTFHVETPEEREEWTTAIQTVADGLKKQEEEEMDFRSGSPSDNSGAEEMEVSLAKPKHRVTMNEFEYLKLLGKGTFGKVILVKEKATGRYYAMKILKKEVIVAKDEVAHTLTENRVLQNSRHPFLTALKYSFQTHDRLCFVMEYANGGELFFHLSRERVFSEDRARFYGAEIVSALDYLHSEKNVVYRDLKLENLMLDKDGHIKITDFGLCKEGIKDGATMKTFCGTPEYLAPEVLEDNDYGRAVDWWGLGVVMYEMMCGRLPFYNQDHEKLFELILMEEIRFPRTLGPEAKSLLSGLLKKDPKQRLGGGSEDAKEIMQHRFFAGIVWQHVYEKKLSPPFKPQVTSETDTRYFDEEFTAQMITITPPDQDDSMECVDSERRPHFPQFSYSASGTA
Method: A TTP Mosquito liquid handling instrument was used to place 125 nl of the appropriate concentration of inhibitor in 100% DMSO (for a dose response curve calculation) into each well of a 384-well plate. To this reaction components were added to a final volume of 12.5 μl: • 0.1 ng/μ1 His-AKT (Full Length), (Invitrogen, Part # P2999, Lot #641228C). • 160 uM ATP (Fluka, 02055) • 1 mM DTT (Sigma, D0632) • 1 mM MgCl2 (Sigma, M1028) • 1 μM substrate peptide (sequence FITC-AHA-GRPRTSSFAEG-NH2), synthesized by Tufts Peptide Synthesis service. • 100 mM HEPES pH 7.5 (Calbiochem, 391338) • 0.015% Brij-35 (Sigma, B4184)
The reaction was incubated for 90 min at 25 C, and then stopped by the addition of 70 μl of Stop buffer (100 mM HEPES pH 7.5, 0.015% Brij-35, 10 mM EDTA (Sigma, E7889)).
The plate was read on a Caliper LC 3000 in an Off-Chip mobility shift assay format, using the following parameters for a 12-sipper chip: screening pressure—2.3 psi, upstream voltage—500, and downstream voltage—3000. These conditions cause unphosphorylated substrate and phosphorylated product peptide to resolve as separate peaks allowing direct measurement of percentage of conversion of substrate to product. The percent conversion was plotted against concentration of inhibitor to produce a sigmoidal dose response curve, from which an IC50 was calculated.

T1 sequence (P23443 whole entry T412E): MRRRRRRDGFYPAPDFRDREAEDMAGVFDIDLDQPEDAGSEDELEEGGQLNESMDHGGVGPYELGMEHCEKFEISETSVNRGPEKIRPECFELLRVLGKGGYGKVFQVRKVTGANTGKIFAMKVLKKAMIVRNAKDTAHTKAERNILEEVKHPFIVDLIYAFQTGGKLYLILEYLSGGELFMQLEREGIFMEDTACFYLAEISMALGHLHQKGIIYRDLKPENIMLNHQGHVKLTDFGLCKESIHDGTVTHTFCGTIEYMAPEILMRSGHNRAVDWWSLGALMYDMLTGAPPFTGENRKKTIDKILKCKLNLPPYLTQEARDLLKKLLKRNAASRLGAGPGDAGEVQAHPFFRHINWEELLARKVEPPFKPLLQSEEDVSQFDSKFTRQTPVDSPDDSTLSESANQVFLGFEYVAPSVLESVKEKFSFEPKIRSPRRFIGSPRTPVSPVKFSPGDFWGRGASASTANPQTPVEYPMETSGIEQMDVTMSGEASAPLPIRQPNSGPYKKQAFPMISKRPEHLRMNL

SMILES | IC50 (P70S6K (T412E mutant)) [nM] | IC50 (His-AKT (Full Length)) [nM]
CCc1c(N)ncnc1N1CCC(c2nc(-c3ccc(F)c(C)c3)cn2CCN2CCC2)CC1 [Compound 1, 6-{4-[1-(2-Azetidin-1-yl-ethyl)-4-(4-fluoro-3-methyl-phenyl)-1H-imidazol-2-yl]-piperidin-1-yl}-5-ethyl-pyrimidin-4-ylamine] | < 3 | 3 to 15
Cc1cc(-c2cn(CCN3CCC3)c(C3CCN(c4ncnc(N)c4Cl)CC3)n2)ccc1F [Compound 2, 6-{4-[1-(2-Azetidin-1-yl-ethyl)-4-(4-fluoro-3-methyl-phenyl)-1H-imidazol-2-yl]-piperidin-1-yl}-5-chloro-pyrimidin-4-ylamine] | < 3 | < 3
CC(C)c1cc(-c2cn(CCN3CCC3)c(C3CCN(c4ncnc(N)c4C(C)C)CC3)n2)ccn1 [Compound 3, 6-{4-[1-(2-Azetidin-1-yl-ethyl)-4-(2-isopropyl-pyridin-4-yl)-1H-imidazol-2-yl]-piperidin-1-yl}-5-isopropyl-pyrimidin-4-ylamine] | 3 to 15 | 3 to 15
Cc1cc(-c2cn(CCN3CCC3)c(C3CCN(c4ncnc(N)c4C(C)C)CC3)n2)ccc1F [Compound 4, 6-{4-[1-(2-Azetidin-1-yl-ethyl)-4-(4-fluoro-3-methyl-phenyl)-1H-imidazol-2-yl]-piperidin-1-yl}-5-isopropyl-pyrimidin-4-ylamine] | 3 to 15 | 3 to 15
CC(C)c1c(N)ncnc1N1CCC(c2nc(-c3ccnc(C(F)(F)F)c3)cn2CCN2CCC2)CC1 [Compound 5, 6-{4-[1-(2-Azetidin-1-yl-ethyl)-4-(2-trifluoromethyl-pyridin-4-yl)-1H-imidazol-2-yl]-piperidin-1-yl}-5-isopropyl-pyrimidin-4-ylamine] | < 3 | 3 to 15
Cc1cc(-c2cn(CC3CN(C)C3)c(C3CCN(c4ncnc(N)c4Cl)CC3)n2)ccc1F [Compound 6, 5-Chloro-6-{4-[4-(4-fluoro-3-methyl-phenyl)-1-(1-methyl-azetidin-3-ylmethyl)-1H-imidazol-2-yl]-piperidin-1-yl}-pyrimidin-4-ylamine] | 3 to 15 | 3 to 15
Cc1cc(-c2cn(CCN3CCC3)c(C3CCN(c4ncnc(N)c4-c4ccn[nH]4)CC3)n2)ccc1F [Compound 7, 6-{4-[1-(2-Azetidin-1-yl-ethyl)-4-(4-fluoro-3-methyl-phenyl)-1H-imidazol-2-yl]-piperidin-1-yl}-5-(2H-pyrazol-3-yl)-pyrimidin-4-ylamine] | 3 to 15 | 3 to 15
Cc1cc(-c2cn(CCN3CCC3)c(C3CCN(c4ncnc(N)c4-c4ccncc4)CC3)n2)ccc1F [Compound 8, 6-{4-[1-(2-Azetidin-1-yl-ethyl)-4-(4-fluoro-3-methyl-phenyl)-1H-imidazol-2-yl]-piperidin-1-yl}-5-pyridin-4-yl-pyrimidin-4-ylamine] | 3 to 15 | 3 to 15
Cc1cc(-c2cn(CCN3CCC3)c(C3CCN(c4ncnc(N)c4-c4cccnc4)CC3)n2)ccc1F [Compound 9, 6-{4-[1-(2-Azetidin-1-yl-ethyl)-4-(4-fluoro-3-methyl-phenyl)-1H-imidazol-2-yl]-piperidin-1-yl}-5-pyridin-3-yl-pyrimidin-4-ylamine] | 3 to 15 | 3 to 15
CCOc1c(N)ncnc1N1CCC(c2nc(-c3ccnc(C(C)C)c3)cn2CCN2CCC2)CC1 [Compound 10, 6-{4-[1-(2-Azetidin-1-yl-ethyl)-4-(2-isopropyl-pyridin-4-yl)-1H-imidazol-2-yl]-piperidin-1-yl}-5-ethoxy-pyrimidin-4-ylamine] | 3 to 15 | 3 to 15
CC(C)c1cc(-c2cn(CCN3CCC3)c(C3CCN(c4ncnc(N)c4C4CCC4)CC3)n2)ccn1 [Compound 11, 6-{4-[1-(2-Azetidin-1-yl-ethyl)-4-(2-isopropyl-pyridin-4-yl)-1H-imidazol-2-yl]-piperidin-1-yl}-5-cyclobutyl-pyrimidin-4-ylamine] | 3 to 15 | < 3
CC(C)Oc1c(N)ncnc1N1CCC(c2nc(-c3ccnc(C(C)C)c3)cn2CCN2CCC2)CC1 [Compound 12, 6-{4-[1-(2-Azetidin-1-yl-ethyl)-4-(2-isopropyl-pyridin-4-yl)-1H-imidazol-2-yl]-piperidin-1-yl}-5-isopropoxy-pyrimidin-4-ylamine] | 3 to 15 | 3 to 15
CC(C)c1cc(-c2cn(CCN3CCC3)c(C3CCN(c4ncnc(N)c4-c4ccncc4)CC3)n2)ccn1 [Compound 13, 6-{4-[1-(2-Azetidin-1-yl-ethyl)-4-(2-isopropyl-pyridin-4-yl)-1H-imidazol-2-yl}-piperidin-1-yl]-5-Pyridin-4-yl-pyrimidin-4-ylamine] | 3 to 15 | > 15
CC(C)c1cc(-c2cn(CCN3CCC3)c(C3CCN(c4ncnc(N)c4OCC(F)(F)F)CC3)n2)ccn1 [Compound 14, 6-{4-[1-(2-Azetidin-1-yl-ethyl)-4-(2-isopropyl-pyridin-4-yl)-1H-imidazol-2-yl}-piperidin-1-yl]-5-(2,2,2-trifluoro-ethoxy)-Pyrimidin-4-ylamine] | 3 to 15 | 3 to 15
CC(C)c1cc(-c2cn(CCN3CCC3)c(C3CCN(c4ncnc(N)c4C=O)CC3)n2)ccn1 [Compound 15, 4-Amino-6-{4-[1-(2-azetidin-1-yl-ethyl)-4-(2-isopropyl-pyridin-4-yl)-1H-imidazol-2-yl]-piperidin-1-yl}-pyrimidine-5-carbaldehyde] | < 3 | 3 to 15
Cc1cc(-c2cn(CCN3CCC3)c(C3CCN(c4ncnc(N)c4C4CC4)CC3)n2)ccc1F [Compound 16, 6-{4-[1-(2-Azetidin-1-yl-ethyl)-4-(4-fluoro-3-methyl-phenyl)-1H-imidazol-2-yl]-piperidin-1-yl}-5-cyclopropyl-pyrimidin-4-ylamine] | < 3 | < 3

Second part, the compound after the results:

IC50 (P70S6K (T412E mutant)) [nM] | IC50 (His-AKT (Full Length)) [nM] | SMILES
3 to 15 | 3 to 15 | CC(C)c1cc(-c2cn(CCN3CCC3)c(C3CCN(c4ncnc(N)c4C4CC4)CC3)n2)ccn1 [Compound 17, 6-{4-[1-(2-Azetidin-1-yl-ethyl)-4-(2-isopropyl-pyridin-4-yl)-1H-imidazol-2-yl]-piperidin-1-yl}-5-cyclopropyl-pyrimidin-4-ylamine]
< 3 | > 15 | CC(C)c1cc(-c2cn(CCN3CCC3)c(C3CCN(c4ncnc(N)c4-c4ccccc4)CC3)n2)ccn1 [Compound 18, 6-{4-[1-(2-Azetidin-1-yl-ethyl)-4-(2-isopropyl-pyridin-4-yl)-1H-imidazol-2-yl]-piperidin-1-yl}-5-phenyl-pyrimidin-4-ylamine]
3 to 15 | > 15 | CC(C)c1cc(-c2cn(CCN3CCC3)c(C3CCN(c4ncnc(N)c4-c4cccnc4)CC3)n2)ccn1 [Compound 19, 6-{4-[1-(2-Azetidin-1-yl-ethyl)-4-(2-isopropyl-pyridin-4-yl)-1H-imidazol-2-yl]-piperidin-1-yl}-5-Pyridin-3-yl-pyrimidin-4-ylamine]
< 3 | 3 to 15 | CCOc1c(N)ncnc1N1CCC(c2nc(-c3ccc(F)c(Cl)c3)cn2CCN(C)C)CC1 [Compound 20]
< 3 | < 3 | Cc1cc(-c2cn(CCN(C)C)c(C3CCN(c4ncnc(N)c4Br)CC3)n2)ccc1F [Compound 21]
< 3 | < 3 | Cc1cc(-c2cn(CCN(C)C)c(C3CCN(c4ncnc(N)c4Cl)CC3)n2)ccc1F [Compound 22]
< 3 | 3 to 15 | CN(C)CCn1cc(-c2ccc(F)c(C(F)(F)F)c2)nc1C1CCN(c2ncnc(N)c2Cl)CC1 [Compound 23]
< 3 | 3 to 15 | CN(C)CCn1cc(-c2ccnc(C(F)(F)F)c2)nc1C1CCN(c2ncnc(N)c2Cl)CC1 [Compound 24]
< 3 | < 3 | CN(C)CCn1cc(-c2ccnc(C(F)(F)F)c2)nc1C1CCN(c2ncnc(N)c2Br)CC1 [Compound 25]
3 to 15 | 3 to 15 | CCOc1c(N)ncnc1N1CCC(c2nc(-c3ccnc(C(F)(F)F)c3)cn2CCN(C)C)CC1 [Compound 26]
3 to 15 | > 15 | CCc1c(N)ncnc1N1CCC(c2nc(-c3ccnc(C(F)(F)F)c3)cn2CCN(C)C)CC1 [Compound 27]
3 to 15 | 3 to 15 | CC(C)Oc1c(N)ncnc1N1CCC(c2nc(-c3ccnc(C(F)(F)F)c3)cn2CCN(C)C)CC1 [Compound 28]
< 3 | 3 to 15 | CN(C)CCn1cc(-c2ccnc(C(F)(F)F)c2)nc1C1CCN(c2ncnc(N)c2C#N)CC1 [Compound 29]
